From paper PMC10678405, “2126. Safety, Tolerability, and Pharmacokinetics (PK) in Healthy Participants Following Single Dose Administration of Zosurabalpin, a Novel Pathogen-Specific Antibiotic for the Treatment of Serious Acinetobacter Infections” (Open Forum Infectious Diseases, 2023)
Where two headings read alike, the source gives them in different places.

Experiments:
[1] = single IV dose; for dose proportionality of plasma exposures (Cmax and AUCinf): healthy participants
Text: (§1) Methods The entry-into-human study (BP41732) was a double-blind, placebo-controlled, randomized, single-and multiple ascending dose study in healthy participants. In Part 1 (SAD) of Study BP41732, participants were randomized 3:1 to receive IV zosurabalpin or placebo in sequential single ascending dose cohorts. The mass balance study (BP43532) was a non-randomized, non-controlled, open-label, single IV dose study in healthy male participants. […] Disclosures Andreas Guenther, PhD, F. Hoffmann-La Roche Ltd: Employee Amanda Messer, BPharm, Roche Products Ltd: Employee Mylène Giraudon, PharmD, F. Hoffmann-La Roche Ltd: Employee Katie Patel, MSc, Roche Products Limited: Employer|Roche Products Limited: Stocks/Bonds Erik J. Deurloo, MSc, F. Hoffmann-La Roche Ltd: Salary|F. Hoffmann-La Roche Ltd: Stocks/Bonds Michael Lobritz, MD, PhD, Roche: full time employee|Roche: full time employee

healthy participants = test system: healthy participants
Text: as §1

[2] = healthy male participants, study BP43532, average
[3] = healthy participants, single IV dose 10 mg to 2000 mg

CN1C(=O)[C@H](CCCCN)NC(=O)[C@H](CCCN)NCc2cccnc2Sc2cccc(-c3ccc(C(=O)O)cc3)c2CNC(=O)[C@@H]1Cc1c[nH]c2ccccc12 [zosurabalpin, Zosurabalpin]
total [14C]-radioactivity recovered in feces, % of the administered dose [1, 2]: 48.0 % of the administered dose | total [14C]-radioactivity recovered in urine, % of the administered dose [1, 2]: 52.6 % of the administered dose | dose proportionality of plasma exposures (Cmax and AUCinf) ([1]; above 1000 mg up to 2000 mg): more than dose-proportionally | dose proportionality of plasma exposures (Cmax and AUCinf) ([1]; up to 1000 mg): increased approximately dose-proportionally | treatment-related infusion-related reactions (IRRs), participants affected / participants dosed (healthy participants; healthy male and female participants, single IV dose 10 mg to 2000 mg, studies BP41732 Part 1 (SAD) and BP43532, preliminary data): 9/64 | changes in laboratory values, ECGs or vital signs compared to placebo (healthy participants; [3]): did not show any clinically significant changes | dose dependence of IRR occurrence (healthy participants; [3]): appeared to be dose-dependent | overall safety and tolerability (healthy participants; healthy participants, single IV doses of 10 mg to 2000 mg): safe and overall well tolerated
